According to patent publication US7442713B2, “2-thio-substituted imidazole derivatives and their use in pharmaceutics” (Merckle GmbH, priority 2002, dated 2008):
Where two headings read alike, the source gives them in different places.

Key:
IL-1β = test: In vitro test of cytokine release, LPS-stimulated human whole blood / PBMCs: IL-1β; type: cell-based; details: PBMC, LPS stimulation, ELISA, read-out: Cytokines IC50 IL-1β
Procedure: The compounds or compositions according to the invention can be administered to mammals (man or animal) in a dose of from about 0.5 mg to 100 mg per kg of body weight per day. They may be administered in one individual dose or in a plurality of doses. The activity spectrum of the compounds as inhibitors of cytokine release was examined using the test systems below, as described by C. Donat and S. Laufer in Arch. Pharm. Pharm. Med. Chem. 333, Suppl. 1, 1-40, 2000.
In vitro Test with Human Whole Blood
The test substance is added to samples of human potassium-EDTA whole blood (of 400 μl each) and the samples are preincubated in a CO2 incubator (5% CO2; 95% moisture-saturated air) at 37° C. for 15 min. The samples are then stimulated with 1 μg/ml of LPS (E. coli 026:B6) at 37° C. in a CO2 incubator (5% CO2; 95% moisture-saturated air) for 4 hours. The reaction is stopped by placing the samples on ice, adding DPBS buffer and then centrifuging at 1000*g for 15 min. The amount of IL-1β and TNFα in the plasma supernatant is then determined by ELISA.
1) The mononuclear cells (PBMCs) from human potassium-EDTA whole blood, diluted 1:3, are isolated by density gradient centrifugation (Histopaque®-1.077). The cells are washed twice with DPBS buffer, resuspended in macrophage SFM medium and adjusted to a cell count of 1*10^6 cells/ml.
The resulting PBMCs suspension (samples of in each case 390 μl) and the test substance are preincubated at 37° C. in a CO2 incubator (5% CO2; 95% moisture-saturated air) for 15 min. The samples are then stimulated with in each case […] of LPS (E. coli 026:B6) at 37° C. in a CO2 incubator (5% CO2; 95% moisture-saturated air) for 4 hours. The reaction is stopped by placing the samples on ice, adding DPBS buffer and then centrifuging at 15 880*g for 12 min. The amount of IL-1β and TNFα in the plasma supernatant is then determined by ELISA.

activated p38α = activated p38α (Homo sapiens, UniProt Q16539); test: Kinase assay (p38α, ATF2 substrate, ELISA read-out); type: biochemical
activated p38α, sequence (Q16539 whole entry): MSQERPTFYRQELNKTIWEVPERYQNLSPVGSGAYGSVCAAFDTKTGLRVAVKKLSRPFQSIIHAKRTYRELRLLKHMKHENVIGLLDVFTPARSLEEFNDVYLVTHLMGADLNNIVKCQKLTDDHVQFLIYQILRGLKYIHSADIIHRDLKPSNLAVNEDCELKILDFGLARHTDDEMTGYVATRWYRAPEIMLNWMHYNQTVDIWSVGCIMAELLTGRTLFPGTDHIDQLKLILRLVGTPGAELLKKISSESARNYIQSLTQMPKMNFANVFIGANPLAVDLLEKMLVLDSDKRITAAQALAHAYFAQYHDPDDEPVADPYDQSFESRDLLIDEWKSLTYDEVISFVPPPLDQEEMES
Procedure: At 37° C., microtiter plates were coated with 50 μl of ATF2 solution ([…]) for one hour. The plates were washed three times with water, and 50 μl of kinase mixture (50 mM tris-HCl, 10 mM MgCl2, 10 mM β-glycerol phosphate, 10 μg/ml BSA, 1 mM DTT, 100 μM ATP, 100 μM Na3VO4, 10 ng of activated p38α) with or without inhibitor were then added into the wells, and the plates were incubated at 37° C. for 1 hour. The plates were washed three times and then incubated at 37° C. with phosphorus-ATF-2 antibodies for one hour. Once more, the plates were washed three times, and goat-anti-rabbit IgG labeled with alkaline phosphatase was then added at 37° C. for one hour (to immobilize antibody-phosphorylated protein-substrate complex). After washing three times, the alkaline phosphatase-substrate solution (3 mM 4-NPP, 50 mM NaHCO3, 50 mM MgCl2, 100 μl/well) was added at 37° C. for 1.5 hours. The formation of 4-nitrophenolate was measured at 405 nm using a microtiter plate reader. The IC50 values were calculated.

[1] = Table 1, 100 μM ATP, 10 ng activated p38α, read-out: Kinase assay IC50

Row | IC50 (activated p38α; [1]) | Structure (SMILES) | also measured
1 | 5500 nM | O=C1c2ccccc2C(=O)N1CCCSc1nc(-c2ccc(F)cc2)c(-c2ccncc2)[nH]1 [Example 25d, 5-(4-Fluorophenyl)-4-(4-pyridinyl)imidazole-2-thio-3-propyl-N-phthalimide] | IC50 (IL-1β): 920 nM
2 | 2000 nM | Cn1c(SCCC(=O)O)nc(-c2ccc(F)cc2)c1-c1ccncc1 [Example 37, 3-[4-(4-Fluorophenyl)-1-methyl-5-pyridin-4-yl-1H-imidazol-2-ylsulfanyl]propionic acid] | 
3 | 75000 nM | Cn1c(SCC(=O)N2CCCCC2)nc(-c2ccc(F)cc2)c1-c1ccncc1 [Example 33, 2-[4-(4-Fluorophenyl)-1-methyl-5-pyridin-4-yl-1H-imidazol-2-ylsulfanyl]-1-piperidin-1-ylethanone] | 
4 |  | CC(=O)Nc1cc(-c2c(-c3ccc(F)cc3)nc(SCC(=O)N(CCO)CCO)n2C)ccn1 [Example 69, 2-[5-(2-Acetylaminopyridin-4-yl)-4-(4-fluorophenyl)-1-methyl-1H-imidazol-2-ylsulfanyl]-N,N-bis(2-hydroxyethyl)acetamide] | inhibition at 1 µM (activated p38α; Table 2): 90%; IC50 (activated p38α; Table 2, read-out: p38α IC50): 250 nM
5 |  | CC(=O)Nc1cc(-c2c(-c3ccc(F)cc3)nc(SCC(O)CO)n2C)ccn1 (centres unmarked) [Example 67, N-{4-[2-(2,3-dihydroxypropanesulfanyl)-5-(4-fluorophenyl)-3-methyl-3H-imidazol-4-yl]pyridin-2-yl}acetamide] | inhibition at 1 µM (activated p38α; Table 2): 77%; IC50 (activated p38α; Table 2, read-out: p38α IC50): 430 nM
6 |  | Cn1c(SCC(O)CO)nc(-c2ccc(F)cc2)c1-c1ccncc1 (centres unmarked) [Example 57, 3-[4-(4-Fluorophenyl)-1-methyl-5-pyridin-4-yl-1H-imidazol-2-yl-sulfanyl]propan-1,2-diol] | IC50 (activated p38α; Table 2, read-out: p38α IC50): 3600 nM
7 | 2400 nM | Cn1c(SCCCN2C(=O)c3ccccc3C2=O)nc(-c2ccc(F)cc2)c1-c1ccncc1 [Example 49, 2-{3-[4-(4-Fluorophenyl)-1-methyl-5-pyridin-4-yl-1H-imidazol-2-ylsulfanyl]propyl}isoindole-1,3-dione] | 
8 |  | Cn1c(SCCN2C(=O)c3ccccc3C2=O)nc(-c2ccc(F)cc2)c1-c1ccncc1 [Example 48, 2-{2-[4-(4-Fluorophenyl)-1-methyl-5-pyridin-4-yl-1H-imidazol-2-ylsulfanyl]ethyl}isoindole-1,3-dione] | Kinase assay % at 10^−6 mol/l (activated p38α; Table 1): 30.9% at 10^−6 mol/l
9 |  | CC(=O)CC(=O)CSc1nc(-c2ccc(F)cc2)c(-c2ccncc2)n1C [Example 38, 1-[4-(4-Fluorophenyl)-1-methyl-5-pyridin-4-yl-1H-imidazol-2-ylsulfanyl]pentane-2,4-dione] | Kinase assay % at 10^−6 mol/l (activated p38α; Table 1): 12.22% at10^−6 mol/l
10 | 1400 nM | Cn1c(SCCCN)nc(-c2ccc(F)cc2)c1-c1ccncc1 [Example 60] | 
11 |  | CCOC(=O)CCSc1nc(-c2ccc(F)cc2)c(-c2ccnc(NC(C)=O)c2)n1C [Example 70, Ethyl 3-[5-(2-acetylaminopyridin-4-yl)-4-(4-fluorophenyl)-1-methyl-1H-imidazol-2-ylsulfanyl]propionate] | inhibition at 1 µM (activated p38α; Table 2): 83%; IC50 (activated p38α; Table 2, read-out: p38α IC50): 530 nM
12 | 1800 nM | Cn1c(SCCN)nc(-c2ccc(F)cc2)c1-c1ccncc1 [Example 59, 2-[4-(4-Fluorophenyl)-1-methyl-5-pyridin-4-yl-1H-imidazol-2-ylsulfanyl]ethylamine] | 
13 | 42000 nM | COC(=O)/C=C/CSc1nc(-c2ccc(F)cc2)c(-c2ccncc2)n1C [Example 31, Methyl 4-[4-(4-fluorophenyl)-1-methyl-5-pyridin-4-yl-1H-imidazol-2-ylsulfanyl]but-2-enoate] | 
14 | 12000 nM | Cn1c(SCCC(=O)NC(CO)(CO)CO)nc(-c2ccc(F)cc2)c1-c1ccncc1 [Example 43, 3-[4-(4-Fluorophenyl)-1-methyl-5-pyridin-4-yl-1H-imidazol-2-ylsulfanyl]-N-(2-hydroxy-1,1-bishydroxymethylethyl)propionamide] | 
15 | 410 nM | Cn1c(SCC(=O)N(CCO)CCO)nc(-c2ccc(F)cc2)c1-c1ccncc1 [Example 41, 2-[4-(4-Fluorophenyl)-1-methyl-5-pyridin-4-yl-1H-imidazol-2-ylsulfanyl]-N,N-bis(2-hydroxyethyl)acetamide] | 
16 | 30000 nM | Cn1c(SCCC(=O)N(CCO)CCO)nc(-c2ccc(F)cc2)c1-c1ccncc1 [Example 44, 3-[4-(4-Fluorophenyl)-1-methyl-5-pyridin-4-yl-1H-imidazol-2-ylsulfanyl]-N,N-bis(2-hydroxyethyl)propionamide] | 
17 | 7000 nM | CCOC(=O)C(=O)CSc1nc(-c2ccc(F)cc2)c(-c2ccncc2)n1C [Example 45, Ethyl 3-[4-(4-fluorophenyl)-1-methyl-5-pyridin-4-yl-1H-imidazol-2-ylsulfanyl]-2-oxopropionate] | 
18 | 4800 nM | CCOC(=O)CC(=O)CSc1nc(-c2ccc(F)cc2)c(-c2ccncc2)n1C [Example 30, Ethyl 4-[4-(4-fluorophenyl)-1-methyl-5-pyridin-4-yl-1H-imidazol-2-ylsulfanyl]-3-oxobutanoate] | 
19 | 800 nM | Cn1c(SCC(=O)NC(CO)(CO)CO)nc(-c2ccc(F)cc2)c1-c1ccncc1 [Example 40, 2-[4-(4-Fluorophenyl)-1-methyl-5-pyridin-4-yl-1H-imidazol-2-ylsulfanyl]-N-(2-hydroxy-1,1-bishydroxymethylethyl)acetamide] | 
20 |  | CC(=O)CSc1nc(-c2ccc(F)cc2)c(-c2ccncc2)n1C [Example 26, 1-[4-(4-Fluorophenyl)-1-methyl-5-pyridin-4-yl-1H-imidazol-2-ylsulfanyl]propan-2-one] | IC50 (IL-1β): 83 nM; Kinase assay % at 10^−5 mol/l (activated p38α; Table 1): 37.0% at10^−5 mol/l
21 |  | CCOC(=O)C(Sc1nc(-c2ccc(F)cc2)c(-c2ccncc2)n1C)C(C)=O (centres unmarked) [Example 29, Ethyl 2-[4-(4-fluorophenyl)-1-methyl-5-pyridin-4-yl-1H-imidazol-2-ylsulfanyl]-3-oxobutanoate] | Kinase assay % at 10^−5 mol/l (activated p38α; Table 1): 13.8% at10^−5 mol/l
22 | 3400 nM | Cn1c(SCCCCl)nc(-c2ccc(F)cc2)c1-c1ccncc1 [Example 47, 4-[2-(3-Chloropropylsulfanyl)-5-(4-fluorophenyl)-3-methyl-3H-imidazol-4-yl]pyridine] | 
23 |  | Cn1c(SCCC(=O)O)nc(-c2ccc(F)cc2)c1-c1ccnc(N)c1 [Example 72, 3-[5-(2-Aminopyridin-4-yl)-4-(4-fluorophenyl)-1-methyl-1H-imidazol-2-ylsulfanyl]propionic acid] | inhibition at 1 µM (activated p38α; Table 2): 64%
24 |  | Cn1c(SCC(=O)N(CCO)CCO)nc(-c2ccc(F)cc2)c1-c1ccnc(N)c1 [Example 71, 2-[5-(2-Aminopyridin-4-yl)-4-(4-fluorophenyl)-1-methyl-1H-imidazol-2-ylsulfanyl]-N,N-bis(2-hydroxyethyl)acetamide] | inhibition at 1 µM (activated p38α; Table 2): 76%; IC50 (activated p38α; Table 2, read-out: p38α IC50): 900 nM
25 | 90000 nM | Cn1c(SCC(=O)N2CCOCC2)nc(-c2ccc(F)cc2)c1-c1ccncc1 [Example 32, 2-[4-(4-Fluorophenyl)-1-methyl-5-pyridin-4-yl-1H-imidazol-2-ylsulfanyl]-1-morpholin-4-ylethanone] | 
26 | 5000 nM | Cn1c(SCCCC(=O)O)nc(-c2ccc(F)cc2)c1-c1ccncc1 [Example 39, 4-[4-(4-Fluorophenyl)-1-methyl-5-pyridin-4-yl-1H-imidazol-2-ylsulfanyl]butanoic acid] | 
27 | 1600 nM | Cn1c(SCC(=O)O)nc(-c2ccc(F)cc2)c1-c1ccncc1 [Example 36, 2-[4-(4-Fluorophenyl)-1-methyl-5-pyridin-4-yl-1H-imidazol-2-ylsulfanyl]acetic acid] | 
28 | 9500 nM | CC(=O)C(Sc1nc(-c2ccc(F)cc2)c(-c2ccncc2)n1C)C(C)=O [Example 28, 3-[4-(4-Fluorophenyl)-1-methyl-5-pyridin-4-yl-1H-imidazol-2-ylsulfanyl]pentane-2,4-dione] | 
29 |  | Cn1c(SCC(=O)NCC(O)CO)nc(-c2ccc(F)cc2)c1-c1ccncc1 (centres unmarked) [Example 42, N-(2,3-Dihydroxypropyl)-2-[4-(4-fluorophenyl)-1-methyl-5-pyridin-4-yl-1H-imidazol-2-ylsulfanyl]acetamide] | Kinase assay % at 10^−4 mol/l (activated p38α; Table 1, at 10^−4 mol/l): 90.4% at10^−4 mol/l
